{"source": "patent US20040235717A1", "about": "“Suppression of androgen receptor transactivation through new pathways to ar and ar coactivators and repressors” (priority 2001, published 2004)", "key": {"[1]": {"target": "T1, interaction between AR and ARA70 (Homo sapiens, UniProt P10275)", "T1 construct": "VP16 fused to the AR aa 36-918 (VP16-AR); expressed in transfected cells; host or cells: DU145", "T1 sequence (P10275 36-920)": "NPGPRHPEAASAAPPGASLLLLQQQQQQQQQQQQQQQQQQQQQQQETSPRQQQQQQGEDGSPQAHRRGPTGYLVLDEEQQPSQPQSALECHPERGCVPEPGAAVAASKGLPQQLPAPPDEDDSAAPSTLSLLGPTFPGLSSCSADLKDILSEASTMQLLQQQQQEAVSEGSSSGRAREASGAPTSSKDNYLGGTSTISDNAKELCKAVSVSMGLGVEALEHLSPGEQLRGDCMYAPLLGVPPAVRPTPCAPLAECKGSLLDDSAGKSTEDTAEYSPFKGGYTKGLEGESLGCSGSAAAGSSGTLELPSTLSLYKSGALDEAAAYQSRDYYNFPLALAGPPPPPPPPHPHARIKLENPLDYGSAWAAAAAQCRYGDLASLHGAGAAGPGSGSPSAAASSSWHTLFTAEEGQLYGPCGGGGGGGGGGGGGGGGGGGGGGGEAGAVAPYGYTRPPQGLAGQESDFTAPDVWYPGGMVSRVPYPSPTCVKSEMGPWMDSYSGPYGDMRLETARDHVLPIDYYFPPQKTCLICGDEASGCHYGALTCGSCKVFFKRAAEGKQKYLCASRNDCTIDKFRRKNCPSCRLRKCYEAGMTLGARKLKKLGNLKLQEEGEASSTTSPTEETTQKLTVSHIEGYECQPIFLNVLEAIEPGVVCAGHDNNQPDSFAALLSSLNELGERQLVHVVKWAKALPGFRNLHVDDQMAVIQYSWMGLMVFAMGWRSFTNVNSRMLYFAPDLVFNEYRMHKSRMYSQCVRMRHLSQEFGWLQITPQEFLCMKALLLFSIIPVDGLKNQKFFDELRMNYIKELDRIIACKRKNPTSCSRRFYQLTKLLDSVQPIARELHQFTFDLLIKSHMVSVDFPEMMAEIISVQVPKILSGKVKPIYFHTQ", "test": "Mammalian two-hybrid assay GAL4-ARA70 / VP16-AR in DU145 cells (pG5CAT)", "type": "cell-based", "details": "1 nM DHT", "text": "257. […] Onate, S. A. et al., Science 270, 1354-1357 (1995); Voegel, J. J. et al., EMBO J. 15, 3667-3675 (1996); Yeh, S. et al., Proc. Natl. Acad. Sci. USA 93, 5517-5521(1996); Yeh, S. et al., Proc. Natl. Acad. Sci. USA 95, 5527-5532 (1998); Fujimoto, N. et al., J. BioI. Chem. 274, 8316-8321 (1999); Miyamoto, H. et al., Proc. Natl. Acad. Sci. USA 95 11083-11088 (1998); Kang, H. Y. et al., J. BioI. Chem. 274, 8570-8576 (1999); Yeh, S. et al., Biochem. Biophys. Res. Commun. 248, 361-367 (1998). […] Yeh, S. et al., Proc. Natl. Acad. Sci. USA 93, 5517-5521(1996); Yeh, S. et al., Proc. Natl. Acad. Sci. USA 95, 5527-5532 (1998). […] The interaction between AR and ARA70 was determined by CAT assay using pG5CAT as reporter. […] In contrast, the addition of […] between the AR and ARA70 (FIG. 4a, lane 2 vs 5 and lane 6 vs 8). Similar repression effects also occurred when we replaced ARA70 with other AR coactivators, such as ARA54 or TIF2. Kang, H. Y. et al., J. BioI. Chem. 274, 8570-8576 (1999); Voegel, J. J. et al., EMBO J. 15, 3667-3675 (1996). cAkt and dAkt, however, had very little effect on the interaction between GAL4 fused AR-LBD653-918 and VP16-ARA 70 (VP16 fused ARA70), VP16-ARA54, or VP16-TIF2.\nGAL4DBD fused to ARA70 aa 176-401 (GAL4-ARA70), and VP16 fused to the AR aa 36-918 (VP16-AR) were transfected into DU145 cells in the presence or absence of cAkt, dAkt, and LY294002."}, "[2]": {"test_system": "p21 expression", "test": "p21 promoter activity (luciferase) and p21 protein expression", "type": "cell-based", "method": "18. […] (A) Akt suppressed androgen/AR-induced p21 promoter activity. […] (B) Androgen/AR-induced PC-3(AR)6 apoptosis and p21 protein expression was blocked by Akt PC-3(AR)6 was transfected with pCDNA3, cAkt, or dAkt, as indicated, for 16 h. […] (C) AR-induced p21 protein expression was enhanced by dAkt in LNCaP cells. […] LNCaP stable transfection with dAkt was confirmed by western blot assay using phospho-Akt (Ser473) antibody. […] TPA was then added for another 24 h and cell apoptosis was determined by TUNEL assay. […] IGF-1 was added for another 30 min, followed by 10 nM TPA treatment for another 24 h. The apoptosis was determined by TUNEL assay. The data are means±s.d. from three independent experiments."}, "[3]": {"test_system": "estrogen receptor (ER) transactivation", "test": "ER transactivation, ERE-luc in PC-3 cells transfected with ERα", "type": "cell-based, human", "details": "10 nM E2", "method": "26. […] The cells were harvested and assayed for luciferase activity using MMTV-luc as a reporter. […] The cells were harvested for Northern blot analysis. […] The cells were harvested and assayed for the luciferase activity. […] (E) The PC-3 cells were transfected with ERα along with plasmids, as indicated, using ERE-luc as a reporter for 16 h, followed by 10 nM E2 treatment for another 16 h. The cells were harvested for luciferase assay. Data are means±s.d. from three independent experiments.\n312. […] The cells were lysed and the luciferase activity was detected by the dual luciferase assay according to standard procedures."}}, "note": "“Also recorded” adds a separate entry of the source.", "data": [{"substance": "dAkt: dominant-negative Akt, a kinase deficient mutant, K179A", "values": [{"measurement": "Interaction between AR and ARA70 (CAT activity)", "setting": "[1]", "result": "further enhanced the interaction of AR and ARA70; also recorded: further enhanced the interaction between the AR and ARA70"}, {"measurement": "p21 expression in response to androgen", "setting": "[2]; LNCaP stably transfected with dAkt, 10 nM DHT 2 days, 2.5 fold without dAkt", "result": 14.5, "unit": "fold"}, {"measurement": "Effect on androgen/AR-induced p21 expression", "setting": "[2]; PC-3 cells, transfected", "result": "enhanced p21 expression in a dose-dependent manner"}, {"measurement": "Effect on ER transactivation", "setting": "[3]", "result": "suppressed ER transactivation"}]}]}
